Source: the supplement of paper PMC11451515

Test system: NOMO1
Assay: cell viability relative to DMSO control; higher = less cytotoxic
Settings: 48 h
Method in brief: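 Viability was expressed as a per-plate percentage of DMSO wells, with cell-free wells as background. Leukemia cells (NOMO1 or SEM at 500 cells/well, P12-Ichikawa at 1000 cells/well) were adapted for at least four passages in each medium and seeded in 1536-well plates (5 μl). Library compounds in DMSO were pin-dosed over an 11-point threefold series from 47 μM to 0.79 nM, and CellTiter-Glo One luminescence was read after 48 h at 37°C.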

[1] = HPLM + 10% dialyzed FBS, 0.000781 µM
[2] = HPLM + 10% dialyzed FBS, 0.00234 µM
[3] = HPLM + 10% dialyzed FBS, 0.00702 µM
[4] = HPLM + 10% dialyzed FBS, 0.0211 µM
[5] = HPLM + 10% dialyzed FBS, 0.0632 µM
[6] = HPLM + 10% dialyzed FBS, 0.19 µM
[7] = HPLM + 10% dialyzed FBS, 0.569 µM
[8] = HPLM + 10% dialyzed FBS, 1.71 µM
[9] = HPLM + 10% dialyzed FBS, 5.12 µM
[10] = HPLM + 10% dialyzed FBS, 15.4 µM
[11] = HPLM + 10% dialyzed FBS, 46.1 µM
[12] = RPMI 5 mM glucose + 10% FBS, 0.000781 µM
[13] = RPMI 5 mM glucose + 10% FBS, 0.00234 µM
[14] = RPMI 5 mM glucose + 10% FBS, 0.00702 µM
[15] = RPMI 5 mM glucose + 10% FBS, 0.0211 µM
[16] = RPMI 5 mM glucose + 10% FBS, 0.0632 µM
[17] = RPMI 5 mM glucose + 10% FBS, 0.19 µM
[18] = RPMI 5 mM glucose + 10% FBS, 0.569 µM
[19] = RPMI 5 mM glucose + 10% FBS, 1.71 µM
[20] = RPMI 5 mM glucose + 10% FBS, 5.12 µM
[21] = RPMI 5 mM glucose + 10% FBS, 15.4 µM
[22] = RPMI 5 mM glucose + 10% FBS, 46.1 µM
[23] = RPMI 5 mM glucose + 10% dialyzed FBS, 0.000781 µM
[24] = RPMI 5 mM glucose + 10% dialyzed FBS, 0.00234 µM
[25] = RPMI 5 mM glucose + 10% dialyzed FBS, 0.00702 µM
[26] = RPMI 5 mM glucose + 10% dialyzed FBS, 0.0211 µM
[27] = RPMI 5 mM glucose + 10% dialyzed FBS, 0.0632 µM
[28] = RPMI 5 mM glucose + 10% dialyzed FBS, 0.19 µM
[29] = RPMI 5 mM glucose + 10% dialyzed FBS, 0.569 µM
[30] = RPMI 5 mM glucose + 10% dialyzed FBS, 1.71 µM
[31] = RPMI 5 mM glucose + 10% dialyzed FBS, 5.12 µM
[32] = RPMI 5 mM glucose + 10% dialyzed FBS, 15.4 µM
[33] = RPMI 5 mM glucose + 10% dialyzed FBS, 46.1 µM

Row | SMILES | cell viability [1] [%] | cell viability [2] [%] | cell viability [3] [%] | cell viability [4] [%] | cell viability [5] [%] | cell viability [6] [%] | cell viability [7] [%] | cell viability [8] [%] | cell viability [9] [%] | cell viability [10] [%] | cell viability [11] [%] | cell viability [12] [%] | cell viability [13] [%] | cell viability [14] [%] | cell viability [15] [%] | cell viability [16] [%] | cell viability [17] [%] | cell viability [18] [%] | cell viability [19] [%] | cell viability [20] [%] | cell viability [21] [%] | cell viability [22] [%] | cell viability [23] [%] | cell viability [24] [%] | cell viability [25] [%] | cell viability [26] [%] | cell viability [27] [%] | cell viability [28] [%] | cell viability [29] [%] | cell viability [30] [%] | cell viability [31] [%] | cell viability [32] [%] | cell viability [33] [%]
1 | CC1(C)C(N(O)C(=O)Nc2ccc(Cl)cc2)N(c2ccc(Cl)cc2)C(=O)N1CC(=O)N/N=C/C=C/c1ccc([N+](=O)[O-])o1 (stereo unspecified) | 121 | 118 | 125 | 124 | 124 | 115 | 123 | 116 | 108 | 95.8 | 50.2 | 116 | 111 | 109 | 120 | 110 | 104 | 102 | 110 | 97.4 | 104 | 75.1 | 106 | 107 | 103 | 124 | 122 | 121 | 111 | 111 | 108 | 117 | 71.3
2 | COc1ccc2cc1Oc1ccc(cc1)C[C@H]1c3cc(c(OC)cc3CCN1C)Oc1c(OC)c(OC)cc3c1[C@H](C2)N(C)CC3 |  |  |  |  |  |  |  |  |  |  |  | 109 | 110 | 132 | 111 | 111 | 116 | 117 | 107 | 98.3 | 99.8 | 85.1 | 107 | 120 | 121 | 118 | 113 | 119 | 111 | 108 | 103 | 98.7 | 86.8
3 | N#C/C(C(=O)c1ccc(Cl)cc1Cl)=C1/NC(=O)c2ccc(Cl)cc2N1 | 117 | 108 | 122 | 128 | 130 | 117 | 114 | 105 | 109 | 102 | 106 | 105 | 119 | 111 | 109 | 105 | 111 | 103 | 102 | 94.5 | 95.1 | 98.2 | 113 | 114 | 114 | 104 | 118 | 114 | 107 | 103 | 110 | 103 | 105
4 | N#C[C@H](O[C@@H]1O[C@H](CO[C@@H]2O[C@H](CO)[C@@H](O)[C@H](O)[C@H]2O)[C@@H](O)[C@H](O)[C@H]1O)c1ccccc1 | 108 | 96.9 | 120 | 115 | 99.1 | 102 | 100 | 96.6 | 103 | 95.9 | 19.5 | 90.5 | 117 | 104 | 89.4 | 97.3 | 93.5 | 96.3 | 84.5 | 93.4 | 85.1 | 16 | 106 | 110 | 103 | 115 | 109 | 96.2 | 101 | 97.6 | 98.1 | 88.8 | 9.62
